Tests used:
[1] = set-up: method as in PMID 32277364; details: healthy Chinese subjects, oral administration of Y101; cited from earlier work
[2] = Pharmacokinetic DDI study in rats, oral Y101 and/or ETV; format: in vivo, Sprague–Dawley (SD) rats; details: Sprague-Dawley, rat, plasma, n = 4
Description: (§1) Additionally, DDI between Y101 and ETV was investigated by monitoring time-course plasma Y101 in rats with surgery as described above. Animals were randomly placed into three groups (n = 4): (1) Y101 alone (25 mg/kg for intravenous treatment and 60 mg/kg for oral administration); (2) ETV (0.06 mg/kg); and (3) Y101 (25 mg/kg for intravenous treatment and 60 mg/kg for oral administration) + ETV (0.06 mg/kg). ETV was dissolved in saline at concentration of 12 µg/mL. Rats received an oral or intravenous dose of Y101 and/or ETV at volume of 5 mL/kg. The doses used in in vivo pharmacokinetic studies were selected in accordance with therapeutic doses of Y101 and ETV commonly used clinically and in previous studies.
(§2) Following administration, serial blood samples were collected through jugular vein pre-dose (0 h) and post-dose at 0.033, 0.083, 0.25, 0.5, 1, 1.5, 2, 3, 4, 6, 9, 12, 24 and 30 h in heparinized Eppendorf tubes. The resulting samples were centrifuged at 13,800× g at 4 °C for 5 min to obtain plasma. All plasma samples were stored at −70 °C until analysis.
(§3) Biological samples were prepared as previously described.
(§4) Non-compartmental analysis with Phenix WinNonlin (version 8.1; Pharsight, Certara Corp, Princeton, NJ) was used to calculate the main pharmacokinetic parameters of ETV, Y101, M8 and M9 for individual rats. The observed values were reported for maximum concentration (Cmax) and time to reach maximum concentration (Tmax), while the area under the plasma concentration–time curve (AUC) was calculated via the default trapezoidal-up, log-trapezoidal-down approach.

[3] = Pharmacokinetic study in rats, intravenous Y101 with or without PRO; format: in vivo, Sprague–Dawley (SD) rats; details: for Vd / half-life / clearance / AUC(0-inf) / AUC(0-t) / C0 / Tmax / Cmax: male, Sprague-Dawley, rat, plasma, iv, 25 mg/kg; for Vd / half-life / AUC(0-inf) / AUC(0-t) / C0 / Tmax / Cmax: n = 3; for clearance: n = 3, read-out: CLp (plasma clearance) (converted)
Description: The effect of PRO on the pharmacokinetics of Y101 was studied in rats. Male rats surgically prepared with indwelling jugular cannula were randomly divided into two groups (n = 3): (1) Y101 alone (25 mg/kg) as a control and (2) Y101 + PRO (25 mg/kg for Y101 and 100 mg/kg for PRO) as an experimental group. The intravenous dose of Y101 was prepared as previously described. Both Y101 and PRO were injected by caudal vein to rats at volume of 5 mL/kg.
as §2, §3, §4

[4] = Pharmacokinetic DDI study in rats, intravenous Y101 and/or ETV; format: in vivo, Sprague–Dawley (SD) rats; details: Sprague-Dawley, rat, plasma; for AUC(0-inf) / AUC(0-t) / C0 / Vd / half-life / Cmax / Tmax: n = 4; for clearance: n = 4, read-out: CLp (plasma clearance) (converted)
Description: as §1, §2, §3, §4

[5] = oral Y101 60 mg/kg + ETV 0.06 mg/kg
[6] = i.v. Y101 25 mg/kg + PRO 100 mg/kg
[7] = i.v. Y101 25 mg/kg + ETV 0.06 mg/kg
[8] = i.v. Y101 25 mg/kg + PRO 100 mg/kg vs Y101 alone

CN(C)CCOc1ccc(C[C@H](NC(=O)c2ccccc2)C(=O)N[C@H](CO)Cc2ccccc2)cc1.Cl [Y101, N-[N-benzoyl-O-(2-dimethylaminoethyl)-l-tyrosyl]-l-phenylalaninol hydrochloride]
renal excretion [1]: 2.98 % of the dose | AUC(0-inf) [2, 5]: 1680 ng·h/mL | AUC(0-t) [2, 5]: 1620 ng·h/mL | Cmax [2, 5]: 843 ng/mL | AUC(0-inf) ([2]; oral Y101 60 mg/kg alone): 1620 ng·h/mL | AUC(0-t) ([2]; oral Y101 60 mg/kg alone): 1570 ng·h/mL | Cmax ([2]; oral Y101 60 mg/kg alone): 668 ng/mL | Tmax [2, 5]: 0.313 h | half-life [2, 5]: 1.11 h | Tmax ([2]; oral Y101 60 mg/kg alone): 0.25 h | half-life ([2]; oral Y101 60 mg/kg alone): 0.998 h | Vd [3, 6]: 12.5 L/kg | half-life [3, 6]: 0.706 h | clearance [3, 6]: 207 mL/min/kg | AUC(0-inf) [3, 6]: 2030 ng·h/mL | AUC(0-t) [3, 6]: 2020 ng·h/mL | C0 [3, 6]: 15800 ng/mL | AUC(0-inf) ([3]; i.v. Y101 25 mg/kg alone): 2860 ng·h/mL | AUC(0-t) ([3]; i.v. Y101 25 mg/kg alone): 2840 ng·h/mL | C0 ([3]; i.v. Y101 25 mg/kg alone): 16000 ng/mL | Vd ([3]; i.v. Y101 25 mg/kg alone): 10.2 L/kg | half-life ([3]; i.v. Y101 25 mg/kg alone): 0.798 h | clearance ([3]; i.v. Y101 25 mg/kg alone): 149 mL/min/kg | AUC(0-inf) [4, 7]: 1690 ng·h/mL | AUC(0-t) [4, 7]: 1670 ng·h/mL | C0 [4, 7]: 6280 ng/mL | AUC(0-inf) ([4]; i.v. Y101 25 mg/kg alone): 2370 ng·h/mL | AUC(0-t) ([4]; i.v. Y101 25 mg/kg alone): 2350 ng·h/mL | C0 ([4]; i.v. Y101 25 mg/kg alone): 10600 ng/mL | Vd [4, 7]: 15.5 L/kg | half-life [4, 7]: 0.66 h | clearance [4, 7]: 258 mL/min/kg | Vd ([4]; i.v. Y101 25 mg/kg alone): 10.6 L/kg | half-life ([4]; i.v. Y101 25 mg/kg alone): 0.682 h | clearance ([4]; i.v. Y101 25 mg/kg alone): 178 mL/min/kg

CN(C)CCOc1ccc(CC(NC(=O)c2ccccc2)C(=O)O)cc1 (stereo not drawn) [M8]
renal excretion [1]: 27.2 % of the dose | AUC(0-inf) [2, 5]: 10400 ng·h/mL | AUC(0-t) [2, 5]: 10300 ng·h/mL | Cmax [2, 5]: 1980 ng/mL | AUC(0-inf) ([2]; oral Y101 60 mg/kg alone): 10200 ng·h/mL | AUC(0-t) ([2]; oral Y101 60 mg/kg alone): 10100 ng·h/mL | Cmax ([2]; oral Y101 60 mg/kg alone): 2030 ng/mL | Tmax [2, 5]: 1.5 h | half-life [2, 5]: 3.64 h | Tmax ([2]; oral Y101 60 mg/kg alone): 2.25 h | half-life ([2]; oral Y101 60 mg/kg alone): 3.44 h | elevation in AUC value on co-administration of PRO [3, 8]: 163% | increase in Cmax value on co-administration of PRO [3, 8]: 2.6 fold | Tmax [3, 6]: 0.5 h | half-life [3, 6]: 3.45 h | AUC(0-inf) [3, 6]: 21900 ng·h/mL | AUC(0-t) [3, 6]: 21900 ng·h/mL | Cmax [3, 6]: 10100 ng/mL | AUC(0-inf) ([3]; i.v. Y101 25 mg/kg alone): 8360 ng·h/mL | AUC(0-t) ([3]; i.v. Y101 25 mg/kg alone): 8300 ng·h/mL | Cmax ([3]; i.v. Y101 25 mg/kg alone): 3890 ng/mL | Tmax ([3]; i.v. Y101 25 mg/kg alone): 0.667 h | half-life ([3]; i.v. Y101 25 mg/kg alone): 4.07 h | AUC(0-inf) [4, 7]: 6150 ng·h/mL | AUC(0-t) [4, 7]: 6100 ng·h/mL | Cmax [4, 7]: 2520 ng/mL | AUC(0-inf) ([4]; i.v. Y101 25 mg/kg alone): 5860 ng·h/mL | AUC(0-t) ([4]; i.v. Y101 25 mg/kg alone): 5830 ng·h/mL | Cmax ([4]; i.v. Y101 25 mg/kg alone): 2660 ng/mL | Tmax [4, 7]: 0.438 h | half-life [4, 7]: 2.65 h | Tmax ([4]; i.v. Y101 25 mg/kg alone): 0.5 h | half-life ([4]; i.v. Y101 25 mg/kg alone): 1.93 h

C=C1[C@H](CO)[C@@H](O)C[C@@H]1n1cnc2c(=O)[nH]c(N)nc21 [ETV, entecavir]
AUC(0-inf) ([2]; oral ETV 0.06 mg/kg alone): 8.49 ng·h/mL | AUC(0-t) ([2]; oral ETV 0.06 mg/kg alone): 8.15 ng·h/mL | Cmax ([2]; oral ETV 0.06 mg/kg alone): 5.54 ng/mL | AUC(0-inf) [2, 5]: 7.41 ng·h/mL | AUC(0-t) [2, 5]: 6.76 ng·h/mL | Cmax [2, 5]: 2.94 ng/mL | Tmax ([2]; oral ETV 0.06 mg/kg alone): 0.5 h | half-life ([2]; oral ETV 0.06 mg/kg alone): 1.1 h | Tmax [2, 5]: 0.875 h | half-life [2, 5]: 1.45 h | AUC(0-inf) ([4]; i.v. ETV 0.06 mg/kg alone): 9.79 ng·h/mL | AUC(0-t) ([4]; i.v. ETV 0.06 mg/kg alone): 9.21 ng·h/mL | C0 ([4]; i.v. ETV 0.06 mg/kg alone): 26.4 ng/mL | AUC(0-inf) [4, 7]: 6.76 ng·h/mL | AUC(0-t) [4, 7]: 6.31 ng·h/mL | C0 [4, 7]: 19.1 ng/mL | Vd ([4]; i.v. ETV 0.06 mg/kg alone): 11.7 L/kg | half-life ([4]; i.v. ETV 0.06 mg/kg alone): 1.28 h | clearance ([4]; i.v. ETV 0.06 mg/kg alone): 107 mL/min/kg | Vd [4, 7]: 16.4 L/kg | half-life [4, 7]: 1.28 h | clearance [4, 7]: 152 mL/min/kg
